The values that follow come from patent publication US20240051937A1, “ISOINDOLINONE AMIDE COMPOUNDS USEFUL TO TREAT DISEASES ASSOCIATED WITH GSPT1” (Monte Rosa Therapeutics, Inc., priority 2021, published 2024).

For orientation: DC50 means the concentration at which degradation of the target reaches its halfway point. For orientation: IC50 means the concentration at which inhibition is half-maximal.

Where two headings read alike, the source gives them in different places.

The target of assay [1] is GSPT1 (Homo sapiens, UniProt P15170+Q96SW2). Kind of assay: Immunofluorescence assay for GSPT1 degradation in CAL-Si cells. Type of assay: cell-based. The arrangement: CAL-Si cells were purchased from DSMZ (cat. Number ACC302); host or cells: CAL-Si (CAL-51) cells. The following applies: 6 hours treatment. The essentials:
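CAL-Si cells exposed 6 h to compound serial dilutions (30 μM to 0.1 nM), then fixed and immunostained for GSPT1 with DAPI/phalloidin counterstain. Per-cell mean GSPT1 fluorescence from high-content imaging, normalized to controls; DC50 by non-linear regression.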

Assay [2] has as its target T1, Full length wild-type cereblon CRBN (Homo sapiens, UniProt Q96SW2).
T1 construct: Full length wild-type cereblon CRBN (80.0 nM, 10 μL) was incubated in assay buffer
Kind of assay: Fluorescence polarization (FP) assay indicating cereblon binding. The gist of the method: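 CRBN (80.0 nM) preincubated 30 min at RT with compound (300–0.937 or 3000–9.3 nM, 12 points) in 20 mM HEPES pH 8.0, 150 NaCl, 0.5 mM TCEP, 0.05% Tween 20. Cy5-type thalidomide-linked probe added at 5 nM final; FP read after 12 h (ex 590/em 675 nm), normalized to DMSO, IC50 derived.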

[3] abbreviates: read-out: Code: activity for GSPT1 degradation (DC50).
[4] abbreviates: GSPT1 degradation, read-out: DC50.
The mark [5] stands for this setting: cereblon binding, CRBN 80.0 nM, probe 5 nM, FP read after 12 hours, read-out: rFP IC50.
The mark [6] stands for this setting: fluorescence polarization assay, read-out: IC50 value (cereblon binding).

Sequence of GSPT1 (P15170 whole entry): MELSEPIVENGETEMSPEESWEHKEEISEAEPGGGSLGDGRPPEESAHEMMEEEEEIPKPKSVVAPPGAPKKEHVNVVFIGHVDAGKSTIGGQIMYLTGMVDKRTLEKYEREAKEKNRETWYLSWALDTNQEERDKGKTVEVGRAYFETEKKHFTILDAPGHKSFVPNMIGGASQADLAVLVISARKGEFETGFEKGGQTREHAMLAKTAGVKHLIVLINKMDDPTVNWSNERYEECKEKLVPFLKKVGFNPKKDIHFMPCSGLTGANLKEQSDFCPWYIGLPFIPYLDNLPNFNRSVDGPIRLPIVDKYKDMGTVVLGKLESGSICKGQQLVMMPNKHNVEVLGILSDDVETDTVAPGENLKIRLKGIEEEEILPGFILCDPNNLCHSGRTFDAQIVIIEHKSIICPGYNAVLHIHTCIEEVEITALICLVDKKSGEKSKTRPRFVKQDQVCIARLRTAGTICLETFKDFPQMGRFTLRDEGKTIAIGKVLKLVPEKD
Sequence of GSPT1 (Q96SW2 whole entry): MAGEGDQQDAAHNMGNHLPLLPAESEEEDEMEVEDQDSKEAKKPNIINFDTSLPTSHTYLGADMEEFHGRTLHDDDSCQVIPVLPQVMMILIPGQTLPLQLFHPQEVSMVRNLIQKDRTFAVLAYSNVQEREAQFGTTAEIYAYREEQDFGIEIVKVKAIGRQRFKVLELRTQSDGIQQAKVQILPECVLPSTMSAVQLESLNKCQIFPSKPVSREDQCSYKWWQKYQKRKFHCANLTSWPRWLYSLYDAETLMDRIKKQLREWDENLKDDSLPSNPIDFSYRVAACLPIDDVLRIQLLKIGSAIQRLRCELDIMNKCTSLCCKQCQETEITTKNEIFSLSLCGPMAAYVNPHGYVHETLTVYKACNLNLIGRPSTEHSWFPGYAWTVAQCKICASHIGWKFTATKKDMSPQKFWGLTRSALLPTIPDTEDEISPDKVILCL
Sequence of GSPT1 (Q16531 whole entry partner): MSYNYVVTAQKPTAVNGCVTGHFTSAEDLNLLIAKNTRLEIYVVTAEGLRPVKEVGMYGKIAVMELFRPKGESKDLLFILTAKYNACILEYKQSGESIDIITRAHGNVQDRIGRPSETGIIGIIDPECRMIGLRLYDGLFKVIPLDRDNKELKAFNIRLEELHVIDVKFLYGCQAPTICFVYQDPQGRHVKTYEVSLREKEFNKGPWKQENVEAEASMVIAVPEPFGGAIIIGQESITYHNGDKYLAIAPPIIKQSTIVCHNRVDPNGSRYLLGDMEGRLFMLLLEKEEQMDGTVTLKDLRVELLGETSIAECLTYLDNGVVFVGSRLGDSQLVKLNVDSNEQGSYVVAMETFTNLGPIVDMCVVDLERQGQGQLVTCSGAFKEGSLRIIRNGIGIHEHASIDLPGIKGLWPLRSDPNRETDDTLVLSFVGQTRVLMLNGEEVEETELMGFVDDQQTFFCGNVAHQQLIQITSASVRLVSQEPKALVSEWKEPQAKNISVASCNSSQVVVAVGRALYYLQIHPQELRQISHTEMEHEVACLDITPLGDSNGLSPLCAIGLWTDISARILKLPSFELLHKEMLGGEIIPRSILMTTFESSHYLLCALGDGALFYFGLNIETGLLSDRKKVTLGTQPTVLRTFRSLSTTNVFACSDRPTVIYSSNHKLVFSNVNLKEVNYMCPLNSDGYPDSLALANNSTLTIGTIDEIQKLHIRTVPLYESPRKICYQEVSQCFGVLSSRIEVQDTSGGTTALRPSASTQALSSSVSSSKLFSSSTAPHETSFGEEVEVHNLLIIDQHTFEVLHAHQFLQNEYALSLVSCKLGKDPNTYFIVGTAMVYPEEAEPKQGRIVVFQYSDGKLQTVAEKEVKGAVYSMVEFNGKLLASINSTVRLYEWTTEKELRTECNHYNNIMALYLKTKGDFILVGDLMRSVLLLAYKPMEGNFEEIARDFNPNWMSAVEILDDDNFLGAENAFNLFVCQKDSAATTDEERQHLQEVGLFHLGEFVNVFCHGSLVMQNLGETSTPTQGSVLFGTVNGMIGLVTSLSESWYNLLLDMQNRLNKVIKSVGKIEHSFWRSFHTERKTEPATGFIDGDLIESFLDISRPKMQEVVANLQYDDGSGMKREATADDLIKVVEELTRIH
T1 sequence (Q96SW2 whole entry): as the sequence (Q96SW2 whole entry) above

As to `Cc1c(Cl)cc(NC(=O)CCc2ccc3c(c2)C(=O)N(C2CCC(=O)NC2=O)C3)cc1CN1CCOCC1` (centres unmarked) [Compound 2], the DC50 is not above 30 nM in assay [1] (setting [3]) and 6 nM in assay [1] (setting [4]). Further, the figures for the concentration for half-maximal inhibition (IC50) in assay [2] (setting [5]) and in assay [2] (setting [6]) were not above 500 nM and less than 1100 nM, respectively.
In the same order, the values of `Cc1ccc(NC(=O)CCc2ccc3c(c2)C(=O)N(C2CCC(=O)NC2=O)C3)cc1Cl` (centres unmarked) [Compound 1] are not above 30 nM, 16 nM, not above 500 nM and less than 1100 nM.
